Reference: patent US7655430B2, “Method for analyzing residual agricultural chemical” (priority 2004, dated 2010)

Experiments:
choline esterase [1] = settings: background description, no test described; cited from earlier work
choline esterase [2] = assay: choline esterase inhibition, inhibitory signal from hydrogen peroxide generated (choline esterase/choline oxidase, acetylcholine substrate); assay type: biochemical
Description: In this Example, it was intended to confirm the derivatization of carbosulfan (see FIG. 2). Carbosulfan was converted into carbofuran by adding a reduced glutathione (GSH), to a concentration of 5×10^−5M, and a glutathione-transferase (GST), to a concentration of 0.025 U/mL, to 10 mL of a 0.02M Mes buffer solution (pH 6.0) (2-morpholino-ethane sulfonic acid) containing carbosulfan in a variety of concentrations and then allowing each resulting reaction system to stand over at least 30 minutes.
Then, 10 mL of a solution containing 0.1M phosphate buffer solution (pH 7.6) and 0.2M potassium chloride was added to the foregoing solution which had been allowed to stand, to thus obtain a solution having a volume of 20 mL. […]
After bringing these components into contact with one another by allowing them to stand, acetylcholine was added to a concentration of 2×10^−4M to the foregoing solution and then the amount of hydrogen peroxide generated was determined to thus inspect the solution for the activity to inhibit the choline esterase activity. The same solution free of a carbosulfan was used as a control and this was compared with the solutions, which included carbosulfan in a variety of concentrations, based on the detected inhibitory signals corresponding to the quantities of the resulting hydrogen peroxide. […]

Compound	ability to inhibit choline esterase (choline esterase [1])	calibration curve of inhibitory signal (FIG. 3) (choline esterase [2]; after conversion with reduced glutathione (5×10^−5M) and glutathione transferase (0.025 U/mL), at least 30 minutes)	inhibitory activity (inhibitory signal, calibration curve FIG. 3) (choline esterase [2]; reference material free of conversion with reduced glutathione and glutathione transferase)
CNC(=O)Oc1cccc2c1OC(C)(C)C2 [carbofuran]	strong activity of inhibiting choline esterase activity		
CCCCN(CCCC)SN(C)C(=O)Oc1cccc2c1OC(C)(C)C2 [carbosulfan]		almost identical to that observed for the reference material of carbofuran	only a weak inhibitory activity
